This passage reports IC50 results from patent publication US20200261534A1, “NEW TREATMENTS OF MULTIPLE MYELOMA” (priority 2017, published 2020).

Like-named read-outs stand apart in the source and are kept apart here. Starred links: 1 amine or outer side, 2 acyl side, 3 side chain; linkers in the order of their positions; H or OH if unused. Positions of bridges follow the written chain, without caps; N, C: chain ends. Non-standard residues stand in square brackets, D forms with d. Residues, ends and D or L forms follow the SMILES beside them. ξ: configuration not given here. ξαMeNle(6-ylidene) = CC(CCCC=[*:3])(N[*:1])C(=O)[*:2]; X1 = CC(CCCCCCC=[*:3])(N[*:1])C(=O)[*:2]

What all share (format): cell-based
Test [1] concerns HL-60, promyeloblast (acute myelocytic leukemia, AML). The experiment in a line: MTT viability assay, HL-60. The protocol:
HL-60, promyeloblast (acute myelocytic leukemia, AML), ECACC: 98070106 […] During the amplification step and the assays adherent cells were rinsed with DPBS (Dulbecco's Phosphate Buffered Saline, Sigma D1283) three times and afterward treated for 5 minutes with trypsin ([…]) (Gibco-BRL, 15400054) in solution of DPBS at 37° C., and, once detached, transferred in the culturing medium. No-adherent cells were centrifuged and transferred in the culturing medium. Cells were counted in a Neubauer chamber after labelling with Tripan-Blue. […] Cells were seeded at a density of 10000 cells/well in 100 μl of medium in 96 well plates. […] Controls are the untreated cells. Each experiment was performed in triplicate. Cells were incubated with the compounds at the indicated concentrations during 24-72 h in incubator under CO2 atmosphere at 37° C. […] Stock solution of MTT (475989 Calbiochem) was 5 mg/ml in PBS. 1×.10 μl/well of MTT solution were added and the plate was incubated for 3-4 hr. […] Plates were incubated for 16 h at room temperature under orbital shaking. Absorbance at 570 nm was finally measured. […] The dose/response curve was fitted through the sigmoidal equation dose-response (variable slope) and the IC50 values were calculated as follow: Y=Bottom+(Top−Bottom)/(1+10^{[(LogIC50−X)*HillSlope]},

Test [2] relates to A549, epithelial (lung cancer). The experiment in a line: MTT viability assay, A549. The method, then: A549, epithelial (lung cancer), ATCC: CCL-185
(§1) Cell lines A549, MCF-7 and RAMOS were cultured in incubator under CO2 (6%) at 37° C. in DMEM high glucose (Dulbecco's Modified Eagle Solution, Gibco-BRL 31966-21) medium with 10% fetal bovine serum inactivated (FBS) (Gibco-BRL 10106-169). Cell lines HL-60 and MM.1S were cultured in incubator at 37° C. in RPMI-1640 (Sigma R8758) medium with 10% of fetal bovine serum inactivated (FBS) and 2 mM glutamine (Sigma G7513). Cell lines BJ were cultured in incubator under CO2 (6%) at 37° C. in Eagle's Minimum Essential Medium (Sigma, M-2279) with 10% fetal bovine serum inactivated (FBS) (Gibco-BRL 10106-169).
During the amplification step and the assays adherent cells were rinsed with DPBS (Dulbecco's Phosphate Buffered Saline, Sigma D1283) three times and afterward treated for 5 minutes with trypsin ([…]) (Gibco-BRL, 15400054) in solution of DPBS at 37° C., and, once detached, transferred in the culturing medium. No-adherent cells were centrifuged and transferred in the culturing medium. Cells were counted in a Neubauer chamber after labelling with Tripan-Blue. […]
(§2) Cells were incubated with the compounds at the indicated concentrations during 24-72 h in incubator under CO2 atmosphere at 37° C. Then, cell viability was measured by means of MTT (3-(4,5-dimethylthiazol-2-yl)-2,5-diphenyltetrazolium bromide) assay. Stock solution of MTT (475989 Calbiochem) was 5 mg/ml in PBS. 1×.10 μl/well of MTT solution were added and the plate was incubated for 3-4 hr. The medium was discarded and 100 μl of extracting buffer (PBS 1×, 15% SDS, 50% […] N,N-Dimethylformamide, pH 4.7) were added to each well. Plates were incubated for 16 h at room temperature under orbital shaking. Absorbance at 570 nm was finally measured. As negative control (experiment noise) 3 wells were treated with 20 μl/well of a solution of SDS 10% in H2O.
Data analysis was performed calculating the percentage of cell viability normalized vs. the values of negative control, which was considered equal to 100%. The dose/response curve was fitted through the sigmoidal equation dose-response (variable slope) and the IC50 values were calculated as follow: […]
(In general: Formazan colour is commonly taken as a measure of viable cells.)

Test [3] relates to MM.1S, B Lymphoblast (multiple myeloma). The experiment in a line: MTT viability assay, MM.1S. The method, then: MM.1S, B Lymphoblast (multiple myeloma), ATCC: CRL-2974
as §1
During the amplification step and the assays adherent cells were rinsed with DPBS (Dulbecco's Phosphate Buffered Saline, Sigma D1283) three times and afterward treated for 5 minutes with trypsin ([…]) (Gibco-BRL, 15400054) in solution of DPBS at 37° C., and, once detached, transferred in the culturing medium. No-adherent cells were centrifuged and transferred in the culturing medium. Cells were counted in a Neubauer chamber after labelling with Tripan-Blue.
Cells were seeded at a density of 10000 cells/well in 100 μl of medium in 96 well plates. After 24 h, the compounds to be tested were added to calculate the dose/response curve at the starting concentration of 100 μM with serial dilutions (1:1). Controls are the untreated cells. Each experiment was performed in triplicate.
as §2
Data analysis was performed calculating the percentage of cell viability normalized vs. the values of negative control, which was considered equal to 100%. The dose/response curve was fitted through the sigmoidal equation dose-response (variable slope) and the IC50 values were calculated as follow:
Y=Bottom+(Top−Bottom)/(1+10^{[(LogIC50−X)*HillSlope]},
All cell lines were cultured in incubator at 37° C. in RPMI-1640 (Sigma R8758) medium with 10% of fetal bovine serum inactivated (FBS) and 2 mM glutamine (Sigma G7513). During the amplification step cells were centrifuged and transferred into the culturing medium. Cells were counted in a Neubauer chamber after labelling with Tripan-Blue.
as §2, with “peptidomimetic compound (S09)” for “compounds”
Cell lines A549 and MBA-MD231 were cultured in incubator under CO2 (6%) at 37° C. in DMEM high glucose (Dulbecco's Modified Eagle Solution, Gibco-BRL 31966-21) medium with 10% fetal bovine serum inactivated (FBS) (Gibco-BRL 10106-169). […]

Where [4] appears, read: HL-60, same protocol as Example 2, Table 6, read-out: Compound (IC50).
[5] abbreviates: A549, same protocol as Example 2, Table 6, read-out: Compound (IC50).
The mark [6] stands for this setting: MM.1S, same protocol as Example 2, Table 6, read-out: Compound (IC50).

Consider `CC[C@H](C)[C@H](NC(=O)[C@H](Cc1ccc(O)cc1)NC(=O)[C@H](C)NC(=O)C1(C)CCCC=CCCCCCCC(C)(NC(=O)[C@H](CCCCN)NC(=O)[C@@H]2CCCN2C(=O)[C@H](C)N)C(=O)N[C@@H](C(C)C)C(=O)N[C@@H]([C@@H](C)CC)C(=O)N[C@@H](CC(C)C)C(=O)N[C@@H](CCCCN)C(=O)N[C@@H](CCCCN)C(=O)N[C@@H](C)C(=O)N1)C(=O)N[C@@H](CC(C)C)C(=O)N[C@@H](CO)C(=O)O` (stereo partly shown) [S09, APKXVILKKAXAYILS—OH] (H-APK[X1]VILKKA[ξαMeNle(6-ylidene)]AYILS-OH; staple 4-11; N-terminus assumed), for which the IC50 (usually the concentration that gives 50% inhibition) was found to be 3.5 ± 0.2 µM in test [1] (HL-60, MTT, incubation 24-72 h, Table 3, read-out: IC50 values); 3.5 ± 0.2 µM in test [1] (setting [4]); 6.3 ± 0.5 µM in test [2] (A549, MTT, 24-72 h, Table 12, read-out: IC50 values); 9.4 ± 4.1 µM in test [2] (A549, MTT, incubation 24-72 h, Table 3, read-out: IC50 values); 9.4 ± 4.1 µM in test [2] (setting [5]); 7.5 µM in test [3] (MM1S, MTT, 24-72 h, Table 7, read-out: IC50 values in μM for S09). The IC50 in test [3] (MM.1S, MTT, incubation 24-72 h, Table 3, read-out: IC50 values) was about 6.2 µM; in test [3] (setting [6]), about 6.2 µM.
With `CC[C@H](C)[C@H](NC(=O)C1(C)CCCC=CCCCCCCC(C)(NC(=O)[C@@H](NC(=O)[C@@H](NC(=O)[C@H](CCCCN)NC(=O)[C@@H]2CCCN2C(=O)[C@H](C)N)C(C)C)C(C)C)C(=O)N[C@@H](CC(C)C)C(=O)N[C@@H](CCCCN)C(=O)N[C@@H](CCCCN)C(=O)N[C@@H](C)C(=O)N[C@@H]([C@@H](C)O)C(=O)N[C@@H](C)C(=O)N1)C(=O)N[C@@H](CC(C)C)C(=O)N[C@@H](CO)C(=O)O` (stereo partly shown) [IDP-S22, APKVVXLKKATAXILS] (H-APKVV[X1]LKKATA[ξαMeNle(6-ylidene)]ILS-OH; staple 6-13; N-terminus and C-terminus assumed), the IC50 in test [1], in test [2] and in test [3] was over 100 µM throughout.
As to `CC[C@H](C)[C@H](NC(=O)[C@H](Cc1ccc(O)cc1)NC(=O)[C@H](C)NC(=O)[C@@H](NC(=O)[C@H](C)NC(=O)C1(C)CCCC=CCCCCCCC(C)(NC(=O)[C@H](C)N)C(=O)N[C@@H](CCCCN)C(=O)N[C@@H](C(C)C)C(=O)N[C@@H](C(C)C)C(=O)N[C@@H]([C@@H](C)CC)C(=O)N[C@@H](CC(C)C)C(=O)N[C@@H](CCCCN)C(=O)N1)[C@@H](C)O)C(=O)N[C@@H](CC(C)C)C(=O)N[C@@H](CO)C(=O)O` (stereo partly shown) [IDP-S19, AXKVVILKXATAYILS] (H-A[X1]KVVILK[ξαMeNle(6-ylidene)]ATAYILS-OH; staple 2-9), the IC50 in test [1] (setting [4]), in test [2] (setting [5]) and in test [3] (setting [6]) was over 100 µM throughout.
In the case of `CC[C@H](C)[C@H](NC(=O)[C@H](Cc1ccc(O)cc1)NC(=O)[C@H](C)NC(=O)C1(C)CCCC=CCCCCCCC(C)(NC(=O)[C@H](CCCCN)NC(=O)[C@@H]2CCCN2C(=O)[C@H](C)N)C(=O)N[C@@H](C(C)C)C(=O)N[C@@H]([C@@H](C)CC)C(=O)N[C@@H](Cc2ccccc2)C(=O)N[C@@H](CCCCN)C(=O)N[C@@H](CCCCN)C(=O)N[C@@H](C)C(=O)N1)C(=O)N[C@@H](CC(C)C)C(=O)N[C@@H](CO)C(=O)O` (stereo partly shown) [S14, APKXVIFKKAXAYILS—OH] (H-APK[X1]VIFKKA[ξαMeNle(6-ylidene)]AYILS-OH; staple 4-11; N-terminus assumed), the IC50 in test [1] was determined as 7.8 ± 0.4 µM; in test [2] it was 9.1 ± 0.8 µM; in test [3], 6.6 ± 0.9 µM; in test [3] (24 h) it was 7 µM; in test [3] (72 h), 7 µM.
